{"source": "patent US11311522B1", "about": "(Cavion, Inc., priority 2018, dated 2022)", "key": {"[1]": {"test_system": "patients with essential tremor", "assay": "T-CALM: TETRAS-PS spiral task (item 6)", "assay_type": "in vivo, human", "protocol": "The Archimedes spiral item of the TETRAS-PS subscale (Item 6) incorporates a routine clinical assessment of functional tremor impact into the TETRAS scoring of tremor severity. […] The investigator then asks the subject to copy the spiral. Each hand is tested and scored separately. […] The tremor in the spiral is scored, not the movement of the limb.\nScores for TETRAS-PS subscale item 6 were summed for both hands and the mean change from baseline was calculated for Day 15 and Day 28 (FIG. 4 and Table 4). Statistical significance was calculated by Mann-Whitney non-parametric t-test (two tailed)."}, "[2]": {"test_system": "patients with essential tremor", "assay": "T-CALM substudy: iMotor digital spirography", "assay_type": "in vivo, human", "settings": "dominant hand", "description": "The application requires the patient to complete a cycle of evaluations measuring motor function.\nFor the Archimedes spiral item of iMotor, subjects are asked to draw a spiral using a digital stylus on a tablet-based application. Prompts instruct the subject to trace a dotted grey mid-line that begins at the start of the spiral without lifting the stylus off the screen. The test is not timed. Subjects are asked to complete the task twice—one with the right and one with the left hand.\nFunctional tremor frequency (in Hz) is calculated by the iMotor algorithm based on the number and timing of stylus crosses of the mid-line. The mean change from baseline to Day 15 and Day 28 was calculated for the dominant hand. Statistical significance was calculated by Mann-Whitney non-parametric t-test (two tailed) (FIG. 5 and Table 5)."}, "[3]": {"biological_target": "T1, hERG (Homo sapiens, UniProt Q12809)", "T1 construct": "expressed in transfected cells; host or cells: CHO-K1", "T1 sequence (Q12809 whole entry)": "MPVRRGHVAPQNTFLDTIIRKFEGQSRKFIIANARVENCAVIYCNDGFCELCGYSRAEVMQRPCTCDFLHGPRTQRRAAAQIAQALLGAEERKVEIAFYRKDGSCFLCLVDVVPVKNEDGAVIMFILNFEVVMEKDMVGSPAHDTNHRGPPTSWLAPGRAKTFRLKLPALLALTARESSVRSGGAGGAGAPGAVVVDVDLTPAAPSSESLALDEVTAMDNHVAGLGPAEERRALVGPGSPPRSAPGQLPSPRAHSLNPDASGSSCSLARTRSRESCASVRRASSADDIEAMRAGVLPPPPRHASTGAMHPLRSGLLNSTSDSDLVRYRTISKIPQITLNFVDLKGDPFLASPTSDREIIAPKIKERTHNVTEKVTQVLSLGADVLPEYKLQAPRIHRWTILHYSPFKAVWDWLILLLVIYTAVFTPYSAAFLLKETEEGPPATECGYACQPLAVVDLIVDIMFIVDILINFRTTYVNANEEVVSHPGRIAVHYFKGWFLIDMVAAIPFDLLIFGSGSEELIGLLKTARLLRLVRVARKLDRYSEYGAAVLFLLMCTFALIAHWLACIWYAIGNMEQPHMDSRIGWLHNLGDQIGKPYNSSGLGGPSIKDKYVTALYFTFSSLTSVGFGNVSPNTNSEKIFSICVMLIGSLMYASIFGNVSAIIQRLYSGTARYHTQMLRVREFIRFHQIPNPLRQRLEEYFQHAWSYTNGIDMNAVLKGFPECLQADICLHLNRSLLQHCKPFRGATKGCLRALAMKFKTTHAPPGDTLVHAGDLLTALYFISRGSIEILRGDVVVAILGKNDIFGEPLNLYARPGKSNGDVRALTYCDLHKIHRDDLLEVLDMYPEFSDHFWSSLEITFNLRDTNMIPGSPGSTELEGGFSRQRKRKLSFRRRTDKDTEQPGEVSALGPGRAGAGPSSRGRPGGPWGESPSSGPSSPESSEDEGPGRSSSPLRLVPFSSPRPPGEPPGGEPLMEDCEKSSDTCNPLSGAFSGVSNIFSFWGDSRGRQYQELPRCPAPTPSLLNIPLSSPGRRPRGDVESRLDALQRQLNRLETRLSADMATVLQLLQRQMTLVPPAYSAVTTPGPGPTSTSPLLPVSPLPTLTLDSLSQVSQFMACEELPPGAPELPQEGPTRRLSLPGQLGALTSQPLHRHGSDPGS", "assay": "hERG PatchXpress assay", "assay_type": "cell-based", "settings": "doses up to 30 μM"}, "[4]": {"assay": "PN003: safety and tolerability", "assay_type": "in vivo", "settings": "for At least 1 adverse event / Disorientation / Dry mouth / Gastrointestinal Disorders / Hallucinations visual / Headache / Insomnia / Nausea / Nervous System Disorders / Psychiatric Disorders / Somnolence / Vivid dreams: Study PN003/Part I and Part II", "description": "Additional adverse events, including mood swings, feeling frightened, laughing intermittently, difficulty moving hands, feeling weak, enhanced taste, loss of fine sensation in fingertips, some loss of sensation at skin level (all over body), and out of body feeling, were reported as the day progressed. All adverse events were mild or moderate in severity. Most events began minutes to hours after dosing, and all had resolved by 3 days after dosing. The adverse events that the subject experienced were described as “mood swings” and led to discontinuation of dosing. […] In addition, they reported feeling angry towards another subject, feeling dizzy/drunk, intense daydreams, shaking/trembling, and sweating. All adverse events were mild in severity, and all were considered possibly related to the study drug. The last dose of CX-8998 was not administered. All adverse events resolved after discontinuation of the study drug. […] The subject experienced nervous system-related events of gradually increasing severity, including lightheadedness, euphoria, tiredness, headache, hard to follow thoughts, vulnerable thoughts and emotions, feeling flat, and weak in the muscles. All adverse events were mild or moderate in severity, and all were considered possibly related to the study drug. The last dose of CX-8998 was not administered. All adverse events resolved after discontinuation of the study drug. […] Oxygen saturation and serum glucose levels were within normal limits, but the subject's blood pressure was low at the time of the event (76/43 mmHg, with a pulse rate of 59 bpm). […] The event was judged by the investigator as moderate in severity and as probably related to the study drug. The subject was discontinued from the study because of ongoing nausea and feelings of weakness and lethargy. […] The subject was not on telemetry at the time. The investigator considered the event to be a vasovagal reaction (moderate in severity) and assessed the event as unrelated to the study drug. The subject continued in the study and completed the planned 7 days of treatment. […] A washout period of at least 2 weeks separated the treatment periods. […] The PSG recordings were initiated at each subject's habitual bedtime and continued for 8 hours. In addition to PSG recordings, subjects were evaluated on the next day with subjective measures of sleep quality (Leeds Sleep Evaluation Questionnaire) and sleepiness (Karolinska Sleepiness Scale) and with cognitive and motor tasks to assess next-morning residual effects. An interim analysis of the primary endpoint (slow wave activity in the first one-third of sleep) was performed after 24 subjects had completed Part I of the study (Section 5.3.3.1.2). The study was adaptively designed to allow a re-estimation of the sample size after the interim analysis. Based on the results of the interim analysis, the study could be stopped if the efficacy criterion (increase in slow wave activity, p<0.05) or futility criterion (p>0.25) was achieved. If neither criterion was met, a re-estimation of the sample size was specified, with the ability to enroll up to 24 additional subjects. […] As in Part I of the study, PSG recordings were initiated at each subject's habitual bedtime and continued for 8 hours, and subjects were evaluated on the next day with subjective measures of sleep quality (Leeds Sleep Evaluation Questionnaire) and sleepiness (Karolinska Sleepiness Scale) and with cognitive and motor tasks to assess next-morning residual effects.\nAll reported adverse experiences were temporary and generally of mild intensity.\nThe visual disturbances tended to cease with eye opening and to recur with eye closure and were generally not disturbing to the subjects. […] No serious adverse events were reported, and none of the subjects discontinued treatment because of an adverse event. […] 5.3.3.1.3.2 Other Safety Assessments No clinically significant trends in safety laboratory parameters or vital signs were observed. […]"}, "[5]": {"settings": "single dose 4 mg, N = 12 exposures"}, "[6]": {"settings": "single dose 8 mg, N = 9 exposures"}, "[7]": {"settings": "single dose 12 mg, N = 54 exposures"}}, "note": "pIC50: −log10 of the molar value."}
{"smiles": "CC(C)c1ccc(CC(=O)N[C@H](C)c2ccc(OCC(F)(F)F)cn2)cc1", "note": "[CX-8998]", "values": [{"measurement": "Change from baseline in TETRAS-PS spiral item, mean", "setting": "[1]; Day 15 (8 mg BID)", "result": "−0.41"}, {"measurement": "Change from baseline in TETRAS-PS spiral item, mean", "setting": "[1]; Day 28 (10 mg BID)", "result": "−0.658"}, {"measurement": "Change from baseline in functional tremor frequency by iMotor, mean", "setting": "[2]; Day 15 (8 mg BID)", "result": "−2.66", "unit": "Hz"}, {"measurement": "Change from baseline in functional tremor frequency by iMotor, mean", "setting": "[2]; Day 28 (10 mg BID)", "result": "−2.41", "unit": "Hz"}, {"measurement": "pIC50", "setting": "[3]", "result": 4.55}, {"measurement": "IC20", "setting": "[3]; human, CHO-K1 cells expressing hERG", "result": 8.7, "unit": "µM"}, {"measurement": "Exposures with increase from baseline of ≥30 and ≤60 msec in QTc", "setting": "[4]; 8 mg", "result": 11.1, "unit": "%"}, {"measurement": "Exposures with increase from baseline of ≥30 and ≤60 msec in QTc", "setting": "[4]; 12 mg", "result": 5.6, "unit": "%"}, {"measurement": "At least 1 adverse event", "setting": "[4]; Any Dose, N = 75 exposures", "result": "33 (44.0) n (%)"}, {"measurement": "Disorientation", "setting": "[4]; Any Dose, N = 75 exposures", "result": "3 (4.0) n (%)"}, {"measurement": "Dry mouth", "setting": "[4]; Any Dose, N = 75 exposures", "result": "2 (2.7) n (%)"}, {"measurement": "Gastrointestinal Disorders", "setting": "[4]; Any Dose, N = 75 exposures", "result": "7 (9.3) n (%)"}, {"measurement": "Hallucinations visual", "setting": "[4]; Any Dose, N = 75 exposures", "result": "4 (5.3) n (%)"}, {"measurement": "Headache", "setting": "[4]; Any Dose, N = 75 exposures", "result": "9 (12.0) n (%)"}, {"measurement": "Insomnia", "setting": "[4]; Any Dose, N = 75 exposures", "result": "3 (4.0) n (%)"}, {"measurement": "Nausea", "setting": "[4]; Any Dose, N = 75 exposures", "result": "2 (2.7) n (%)"}, {"measurement": "Nervous System Disorders", "setting": "[4]; Any Dose, N = 75 exposures", "result": "15 (20.0) n (%)"}, {"measurement": "Psychiatric Disorders", "setting": "[4]; Any Dose, N = 75 exposures", "result": "17 (22.7) n (%)"}, {"measurement": "Somnolence", "setting": "[4]; Any Dose, N = 75 exposures", "result": "6 (8.0) n (%)"}, {"measurement": "Vivid dreams", "setting": "[4]; Any Dose, N = 75 exposures", "result": "4 (5.3) n (%)"}, {"measurement": "At least 1 adverse event", "setting": "[4]; [5]", "result": "4 (33.3) n (%)"}, {"measurement": "Disorientation", "setting": "[4]; [5]", "result": "0 n (%)"}, {"measurement": "Dry mouth", "setting": "[4]; [5]", "result": "0 n (%)"}, {"measurement": "Gastrointestinal Disorders", "setting": "[4]; [5]", "result": "1 (8.3) n (%)"}, {"measurement": "Hallucinations visual", "setting": "[4]; [5]", "result": "2 (16.7) n (%)"}, {"measurement": "Headache", "setting": "[4]; [5]", "result": "1 (8.3) n (%)"}, {"measurement": "Insomnia", "setting": "[4]; [5]", "result": "1 (8.3) n (%)"}, {"measurement": "Nausea", "setting": "[4]; [5]", "result": "1(8.3) n (%)"}, {"measurement": "Nervous System Disorders", "setting": "[4]; [5]", "result": "2 (16.7) n (%)"}, {"measurement": "Psychiatric Disorders", "setting": "[4]; [5]", "result": "3 (25.0) n (%)"}, {"measurement": "Somnolence", "setting": "[4]; [5]", "result": "1 (8.3) n (%)"}, {"measurement": "Vivid dreams", "setting": "[4]; [5]", "result": "0 n (%)"}, {"measurement": "At least 1 adverse event", "setting": "[4]; [6]", "result": "2 (22.2) n (%)"}, {"measurement": "Disorientation", "setting": "[4]; [6]", "result": "0 n (%)"}, {"measurement": "Dry mouth", "setting": "[4]; [6]", "result": "0 n (%)"}, {"measurement": "Gastrointestinal Disorders", "setting": "[4]; [6]", "result": "1 (11.1) n (%)"}, {"measurement": "Hallucinations visual", "setting": "[4]; [6]", "result": "0 n (%)"}, {"measurement": "Headache", "setting": "[4]; [6]", "result": "0 n (%)"}, {"measurement": "Insomnia", "setting": "[4]; [6]", "result": "0 n (%)"}, {"measurement": "Nausea", "setting": "[4]; [6]", "result": "0 n (%)"}, {"measurement": "Nervous System Disorders", "setting": "[4]; [6]", "result": "1 (11.1) n (%)"}, {"measurement": "Psychiatric Disorders", "setting": "[4]; [6]", "result": "0 n (%)"}, {"measurement": "Somnolence", "setting": "[4]; [6]", "result": "1 (11.1) n (%)"}, {"measurement": "Vivid dreams", "setting": "[4]; [6]", "result": "0 n (%)"}, {"measurement": "At least 1 adverse event", "setting": "[4]; [7]", "result": "27 (50.0) n (%)"}, {"measurement": "Disorientation", "setting": "[4]; [7]", "result": "3 (5.6) n (%)"}, {"measurement": "Dry mouth", "setting": "[4]; [7]", "result": "2 (3.7) n (%)"}, {"measurement": "Gastrointestinal Disorders", "setting": "[4]; [7]", "result": "5 (9.3) n (%)"}, {"measurement": "Hallucinations visual", "setting": "[4]; [7]", "result": "2 (3.7) n (%)"}, {"measurement": "Headache", "setting": "[4]; [7]", "result": "8 (14.8) n (%)"}, {"measurement": "Insomnia", "setting": "[4]; [7]", "result": "2 (3.7) n (%)"}, {"measurement": "Nausea", "setting": "[4]; [7]", "result": "1 (1.9) n (%)"}, {"measurement": "Nervous System Disorders", "setting": "[4]; [7]", "result": "12 (22.2) n (%)"}, {"measurement": "Psychiatric Disorders", "setting": "[4]; [7]", "result": "14 (25.9) n (%)"}, {"measurement": "Somnolence", "setting": "[4]; [7]", "result": "4 (7.4) n (%)"}, {"measurement": "Vivid dreams", "setting": "[4]; [7]", "result": "4 (7.4) n (%)"}]}
